In PubChem BioAssay AID330 (DTP/NCI, 2004) one finds T/C data, which are given here for 20 compounds.

Values joined by “and” are separate entries in the source; they are usually repeats but may differ in a detail not shown here. Equal values may be shown once. Inconclusive results and toxic doses are left out.

For this assay, the system named is P388 leukemia ip, CD2F1 mice, survival T/C. The experiment in a line: NCI In Vivo Anticancer Drug Screen. Data for tumor model P388 Leukemia (intraperitoneal) in CD2F1 (CDF1) mice. Particulars: endpoint: median survival time, higher = longer survival. A digest of the protocol: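 Mice carrying the transplanted tumor received test compound or vehicle. Survival was recorded in each group, and the value is the treated-group measurement divided by that of the vehicle-treated control group.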

Where [1] appears, read: dose: 60.0 mg/kg/injection, schedule: Q01DX005 (ip), vehicle: saline with Tween-80.
[2] abbreviates: dose: 120.0 mg/kg/injection, schedule: Q01DX005 (ip), vehicle: saline with Tween-80.
The mark [3] stands for this setting: dose: 240.0 mg/kg/injection, schedule: Q01DX005 (ip), vehicle: saline with Tween-80.
Where [4] appears, read: dose: 50.0 mg/kg/injection, schedule: Q01DX005 (ip), vehicle: saline.
[5] abbreviates: dose: 100.0 mg/kg/injection, schedule: Q01DX005 (ip), vehicle: saline.
The mark [6] stands for this setting: dose: 12.5 mg/kg/injection, schedule: Q01DX009 (ip), vehicle: saline.
Where [7] appears, read: dose: 25.0 mg/kg/injection, schedule: Q01DX009 (ip), vehicle: saline.
[8] abbreviates: dose: 25.0 mg/kg/injection, schedule: Q01DX009 (ip), vehicle: saline with Tween-80.
Where [9] appears, read: dose: 50.0 mg/kg/injection, schedule: Q01DX009 (ip), vehicle: saline.
The mark [10] stands for this setting: dose: 12.5 mg/kg/injection, schedule: Q01DX009 (ip), vehicle: saline with Tween-80.
[11] abbreviates: dose: 100.0 mg/kg/injection, schedule: Q04DX003 (ip), vehicle: Klucel (hydroxypropylcellulose) (HPC).
Setting [12] is: dose: 200.0 mg/kg/injection, schedule: Q04DX003 (ip), vehicle: Klucel (hydroxypropylcellulose) (HPC).
The mark [13] stands for this setting: dose: 400.0 mg/kg/injection, schedule: Q04DX003 (ip), vehicle: Klucel (hydroxypropylcellulose) (HPC).

On to `Cc1ccc(Nc2ccc(Cl)cc2[N+](=O)[O-])cc1`, for which the T/C runs as follows: (dose: 15.0 mg/kg/injection, schedule: Q01DX005 (ip), vehicle: Klucel + Tween-80) 95 % of control; (dose: 30.0 mg/kg/injection, schedule: Q01DX005 (ip), vehicle: Klucel + Tween-80) 98 % of control; (dose: 60.0 mg/kg/injection, schedule: Q01DX005 (ip), vehicle: Klucel + Tween-80) 100 % of control and 94 % of control.

As to `CCO/C=C1/N=C(c2ccc(OC)cc2OC)OC1=O`, the T/C was 95 % of control under setting [1], 104 % of control under setting [2] and 106 % of control under setting [3].

Take `COc1ccc(C=C(C(=O)CCN(C)C)C(=O)CCN(C)C)cc1`: the T/C is 105 % of control under setting [4] and 100 % of control under setting [5].

As for `COc1ccc2ccc3oc([N+](=O)[O-])cc3c2c1`, the T/C is 108 % of control (dose: 50.0 mg/kg/injection, schedule: Q01DX005 (ip), vehicle: Klucel (hydroxypropylcellulose) (HPC)); 119 % of control (dose: 100.0 mg/kg/injection, schedule: Q01DX005 (ip), vehicle: Klucel (hydroxypropylcellulose) (HPC)); 92 % of control (dose: 400.0 mg/kg/injection, schedule: Q01DX005 (ip), vehicle: Klucel (hydroxypropylcellulose) (HPC)).

Regarding `O=C1OC2C(COC(=O)c3cc(O)c(O)c(O)c3)OC(OC(=O)c3cc(O)c(O)c(O)c3)C(OC(=O)c3cc(O)c(O)c4c3C3C1=CC(=O)[C@](O)(O4)C3(O)O)C2OC(=O)c1cc(O)c(O)c(O)c1` (stereo partly drawn), the T/C is 98 % of control (dose: 6.25 mg/kg/injection, schedule: Q01DX009 (ip), vehicle: saline); 99 % of control under setting [6]; 98 % of control under setting [7].

Consider `CC1=CC2C3C(=O)NC(=O)C3C1(C)C1C3C(=O)NC(=O)C3C21` (stereo not drawn), for which the T/C is 100 % of control under setting [1], 100 % of control under setting [2] and 101 % of control under setting [3].

In the case of `CC(/C=N/Nc1ccccc1)=N\N=c1/scc(-c2ccc(Br)cc2)n1-c1ccc(C)cc1`, the T/C (dose: 100.0 mg/kg/injection, schedule: Q01DX001 (ip), vehicle: saline with Tween-80) was 88 % of control and the T/C (dose: 400.0 mg/kg/injection, schedule: Q01DX001 (ip), vehicle: saline with Tween-80) was 86 % of control.

As for `C#CCOc1ccccc1/C(Cl)=N/Nc1ccc([N+](=O)[O-])cc1[N+](=O)[O-]`, the T/C is, setting by setting: (dose: 6.25 mg/kg/injection, schedule: Q01DX009 (ip), vehicle: saline with Tween-80) 97 % of control; under setting [8], 90 % of control.

For `Cc1cc(NN=O)nc(C)c1C#N`, the T/C runs as follows: (dose: 3.12 mg/kg/injection, schedule: Q01DX009 (ip), vehicle: water) 109 % of control; (dose: 6.25 mg/kg/injection, schedule: Q01DX009 (ip), vehicle: water) 123 % of control; (dose: 12.5 mg/kg/injection, schedule: Q01DX009 (ip), vehicle: water) 116 % of control; (dose: 25.0 mg/kg/injection, schedule: Q01DX009 (ip), vehicle: water) 150 % of control and 151 % of control; (dose: 50.0 mg/kg/injection, schedule: Q01DX009 (ip), vehicle: water) 178 % of control and 190 % of control; (dose: 100.0 mg/kg/injection, schedule: Q01DX009 (ip), vehicle: water) 178 % of control.

For the compound `O=C(O)/C=N/NP(=O)(Oc1ccccc1)Oc1ccccc1`, the T/C runs as follows: (dose: 25.0 mg/kg/injection, schedule: Q01DX009 (ip), vehicle: distilled water + Tween-80) 99 % of control; (dose: 50.0 mg/kg/injection, schedule: Q01DX009 (ip), vehicle: distilled water + Tween-80) 100 % of control and 94 % of control; (dose: 100.0 mg/kg/injection, schedule: Q01DX009 (ip), vehicle: distilled water + Tween-80) 100 % of control and 95 % of control; (dose: 200.0 mg/kg/injection, schedule: Q01DX009 (ip), vehicle: distilled water + Tween-80) 100 % of control and 97 % of control; (dose: 400.0 mg/kg/injection, schedule: Q01DX009 (ip), vehicle: distilled water + Tween-80) 100 % of control and 109 % of control.

Take `Clc1ccc(SCc2csc(-c3ccc(Cl)cc3)n2)cc1`: the T/C reads like this: under setting [9], 104 % of control; (dose: 100.0 mg/kg/injection, schedule: Q01DX009 (ip), vehicle: saline) 111 % of control; (dose: 200.0 mg/kg/injection, schedule: Q01DX009 (ip), vehicle: saline) 104 % of control.

On to `CC(CN(C)C)C(/C=C/c1ccccc1)=N\NC(=O)c1ccccc1` (stereo not drawn), for which the T/C (dose: 60.0 mg/kg/injection, schedule: Q01DX005 (ip), vehicle: saline) is 97 % of control; the T/C (dose: 120.0 mg/kg/injection, schedule: Q01DX005 (ip), vehicle: saline) is 96 % of control; the T/C (dose: 240.0 mg/kg/injection, schedule: Q01DX005 (ip), vehicle: saline) is 97 % of control.

`CN(C)c1ncnc2c1ncn2C1OC(CO)C(N)C1O` (stereo not drawn): the T/C under setting [10] was 104 % of control; the T/C under setting [6] was 118 % of control; the T/C under setting [8] is 113 % of control; the T/C under setting [7] is 119 % of control; the T/C under setting [9] is 117 % of control; the T/C (dose: 75.0 mg/kg/injection, schedule: Q01DX009 (ip), vehicle: saline sonified) was 163 % of control. The T/C was 119 % of control (dose: 100.0 mg/kg/injection, schedule: Q04DX003 (ip), vehicle: saline sonified); 109 % of control (dose: 200.0 mg/kg/injection, schedule: Q04DX003 (ip), vehicle: saline sonified); 95 % of control (dose: 400.0 mg/kg/injection, schedule: Q04DX003 (ip), vehicle: saline sonified).

With `COc1cccc(CSCC(N)C(=O)O)c1` (stereo not drawn), the T/C by setting is: (dose: 50.0 mg/kg/injection, schedule: Q01DX005 (ip), vehicle: saline with Tween-80) 104 % of control; (dose: 100.0 mg/kg/injection, schedule: Q01DX005 (ip), vehicle: saline with Tween-80) 104 % of control; (dose: 200.0 mg/kg/injection, schedule: Q01DX005 (ip), vehicle: saline with Tween-80) 90 % of control.

`CCOc1cc(C=Nc2cc(Cl)c(O)c(Cl)c2)ccc1N(CCCl)CCCl`: the T/C was 122 % of control (dose: 3.13 mg/kg/injection, schedule: Q04DX003 (ip), vehicle: saline with Tween-80); 218 % of control under setting [10]; 168 % of control (dose: 12.5 mg/kg/injection, schedule: Q04DX003 (ip), vehicle: saline with Tween-80); 171 % of control (dose: 16.5 mg/kg/injection, schedule: Q04DX003 (ip), vehicle: saline with Tween-80); 150 % of control under setting [8]; 185 % of control and 200 % of control (dose: 25.0 mg/kg/injection, schedule: Q04DX003 (ip), vehicle: saline with Tween-80). Also, the T/C (dose: 37.5 mg/kg/injection, schedule: Q04DX003 (ip), vehicle: saline with Tween-80) was 204 % of control and the T/C (dose: 50.0 mg/kg/injection, schedule: Q04DX003 (ip), vehicle: saline with Tween-80) is 90 % of control.

For `O=C(Nc1nc2cccnc2s1)C(F)(F)F`, the T/C runs as follows: (dose: 50.0 mg/kg/injection, schedule: Q01DX009 (ip), vehicle: saline with Tween-80) 100 % of control; (dose: 100.0 mg/kg/injection, schedule: Q01DX009 (ip), vehicle: saline with Tween-80) 97 % of control; (dose: 200.0 mg/kg/injection, schedule: Q01DX009 (ip), vehicle: saline with Tween-80) 94 % of control.

For `C[n+]1ccc(C[n+]2ccccc2)c2ccccc21`, the T/C by setting is: under setting [4], 104 % of control; under setting [5], 100 % of control; (dose: 200.0 mg/kg/injection, schedule: Q01DX005 (ip), vehicle: saline) 96 % of control.

`C=C(C)c1nc(N)nc(NCCCC)n1`: the T/C is, setting by setting: under setting [11], 104 % of control; under setting [12], 100 % of control; under setting [13], 96 % of control.

As for `CC(OC(=O)Nc1cccc2ccccc12)C(N)=O` (stereo not drawn), the T/C was 91 % of control under setting [11], 95 % of control under setting [12] and 96 % of control under setting [13].

`CCOC(=O)c1ccc(N=NC2Sc3nc4ccccc4n3C2=O)cc1` (stereo not drawn): the T/C (dose: 7.5 mg/kg/injection, schedule: Q01DX005 (ip), vehicle: Klucel (hydroxypropylcellulose) (HPC)) is 97 % of control; the T/C (dose: 15.0 mg/kg/injection, schedule: Q01DX005 (ip), vehicle: Klucel (hydroxypropylcellulose) (HPC)) is 92 % of control; the T/C (dose: 30.0 mg/kg/injection, schedule: Q01DX005 (ip), vehicle: Klucel (hydroxypropylcellulose) (HPC)) was 90 % of control.
